In the NIST ThermoML archive (doi:10.1016/j.jct.2016.10.031):

Experiment: molar heat capacity at constant pressure
Conditions: 101.33 kPa, Small (less than 1 g) adiabatic calorimetry

CC(C)(C)c1ccc(Oc2ccc([N+](=O)[O-])cc2)cc1 [1-(tert-butyl)-4-(4-nitrophenoxy)benzene]
molar heat capacity at constant pressure [J/K/mol]
Conditions | Crystal | Glass
5 K | 1.355 | –
7.47 K | 4.099 | –
7.73 K | 4.357 | –
7.99 K | 4.806 | –
8.25 K | 4.93 | –
8.5 K | 5.379 | –
8.76 K | 5.679 | –
9 K | 6.111 | –
9.25 K | 6.543 | –
9.5 K | 6.718 | –
9.74 K | 6.934 | –
9.98 K | 7.616 | –
10 K | 7.483 | –
10.29 K | 7.94 | –
10.67 K | 8.647 | –
11.05 K | 9.237 | –
11.43 K | 9.903 | –
11.82 K | 10.72 | –
12.19 K | 11.55 | –
12.56 K | 12.15 | –
12.94 K | 12.7 | –
13.31 K | 13.57 | –
13.67 K | 14.33 | –
14.04 K | 15.21 | –
14.41 K | 15.49 | –
14.78 K | 16.59 | –
15 K | 16.88 | –
15.14 K | 17.38 | –
15.51 K | 17.73 | –
15.87 K | 18.62 | –
16.23 K | 19.3 | –
16.59 K | 20.01 | –
16.95 K | 20.59 | –
17.31 K | 21.22 | –
17.67 K | 21.96 | –
18.02 K | 23.17 | –
18.38 K | 23.47 | –
18.74 K | 23.92 | –
19.09 K | 24.86 | –
19.44 K | 25.53 | –
19.8 K | 26.14 | –
20 K | 26.69 | –
20.15 K | 27.16 | –
20.82 K | 28.34 | –
21.6 K | 29.77 | –
22.37 K | 31.32 | –
23.15 K | 32.68 | –
23.93 K | 34.2 | –
24.7 K | 35.79 | –
25 K | 36.33 | –
25.47 K | 37.61 | –
26.25 K | 38.45 | –
27.02 K | 40.22 | –
27.78 K | 41.32 | –
28.55 K | 43.04 | –
29.31 K | 44.42 | –
30 K | 45.73 | –
30.07 K | 45.76 | –
30.84 K | 47.58 | –
31.6 K | 48.75 | –
32.37 K | 49.72 | –
33.14 K | 51.08 | –
33.9 K | 52.67 | –
34.66 K | 54.05 | –
35 K | 54.54 | –
35.42 K | 55.3 | –
36.18 K | 57.11 | –
36.94 K | 57.85 | –
37.7 K | 58.97 | –
38.45 K | 60.6 | –
39.21 K | 61.49 | –
39.97 K | 62.88 | –
40 K | 63.11 | –
40.73 K | 64.39 | –
41.49 K | 65.82 | –
42.25 K | 66.47 | –
43.01 K | 68.18 | –
43.76 K | 69.21 | –
44.52 K | 70.63 | –
45 K | 71.17 | –
45.29 K | 71.91 | –
46.05 K | 72.64 | –
46.81 K | 73.61 | –
47.56 K | 75.02 | –
48.32 K | 75.74 | –
49.08 K | 77.04 | –
49.84 K | 77.52 | –
50 K | 77.91 | –
50.59 K | 79.05 | –
51.35 K | 79.22 | –
52.11 K | 79.8 | –
52.86 K | 81.65 | –
53.62 K | 82.43 | –
54.38 K | 83.39 | –
55.13 K | 84.31 | –
55.89 K | 84.81 | –
56.64 K | 85.14 | –
57.4 K | 86.3 | –
58.15 K | 87.8 | –
58.9 K | 88.13 | –
59.65 K | 89.46 | –
60 K | 89.55 | –
60.41 K | 89.8 | –
61.16 K | 91.13 | –
61.91 K | 92.37 | –
62.66 K | 92.46 | –
63.41 K | 94.04 | –
64.16 K | 94.87 | –
64.91 K | 94.78 | –
65.66 K | 96.12 | –
66.41 K | 96.12 | –
67.16 K | 97.94 | –
67.91 K | 97.94 | –
68.65 K | 99.44 | –
69.4 K | 100.27 | –
70 K | 101.19 | –
70.15 K | 102.77 | –
71.05 K | 102.93 | –
72.11 K | 103.85 | –
73.17 K | 104.93 | –
74.23 K | 106.18 | –
75.29 K | 108.42 | –
76.35 K | 108.75 | –
77.41 K | 110.08 | –
78.47 K | 112 | –
79.3 K | 112.16 | –
79.53 K | 113.49 | –
79.87 K | – | 115.9
80 K | 113.16 | –
80.1 K | 112.83 | –
80.58 K | 114.66 | –
80.67 K | – | 116.65
80.9 K | 113.82 | –
81.47 K | – | 117.4
81.64 K | 116.15 | –
81.71 K | 114.66 | –
82.27 K | – | 118.31
82.51 K | 115.4 | –
82.7 K | 116.82 | –
83.08 K | – | 119.23
83.31 K | 116.49 | –
83.75 K | 117.48 | –
83.88 K | – | 120.06
84.11 K | 117.32 | –
84.68 K | – | 120.98
84.92 K | 118.07 | –
85.48 K | – | 121.97
85.72 K | 119.06 | –
86.29 K | – | 122.89
86.52 K | 119.98 | –
87.09 K | – | 123.8
87.32 K | 120.81 | –
87.89 K | – | 124.55
88.13 K | 121.72 | –
88.7 K | – | 125.63
88.93 K | 122.72 | –
89.5 K | – | 126.55
89.73 K | 123.64 | –
90 K | 123.8 | –
90.3 K | – | 127.29
90.54 K | 124.63 | –
91.1 K | – | 128.38
91.34 K | 125.55 | –
91.91 K | – | 129.29
92.15 K | 126.55 | –
92.71 K | – | 130.12
92.95 K | 127.29 | –
93.52 K | – | 131.12
93.75 K | 128.13 | –
94.32 K | – | 132.03
94.56 K | 129.21 | –
95.13 K | – | 132.87
95.36 K | 130.12 | –
95.93 K | – | 133.7
96.17 K | 131.04 | –
96.73 K | – | 134.69
96.97 K | 132.03 | –
97.54 K | – | 135.44
97.77 K | 132.87 | –
98.34 K | – | 136.44
98.58 K | 133.78 | –
99.14 K | – | 137.35
99.38 K | 134.61 | –
99.95 K | – | 138.35
100 K | 135.53 | –
100.19 K | 135.53 | –
100.75 K | – | 139.43
100.99 K | 136.44 | –
101.55 K | – | 140.18
101.79 K | 137.27 | –
102.35 K | – | 141.01
102.59 K | 138.27 | –
103.16 K | – | 142.01
103.4 K | 139.18 | –
103.96 K | – | 142.76
104.2 K | 140.1 | –
104.76 K | – | 143.67
105 K | 141.18 | –
105.56 K | – | 144.67
105.8 K | 141.93 | –
106.36 K | – | 145.42
106.6 K | 142.84 | –
107.16 K | – | 146.17
107.4 K | 143.67 | –
107.96 K | – | 147.25
108.21 K | 144.51 | –
108.77 K | – | 148.25
109.01 K | 145.5 | –
109.57 K | – | 149
109.81 K | 146.25 | –
110 K | 146.42 | –
110.37 K | – | 149.83
110.61 K | 147.17 | –
111.17 K | – | 150.74
111.42 K | 148.08 | –
111.97 K | – | 151.66
112.22 K | 149 | –
112.78 K | – | 152.74
113.02 K | 149.74 | –
113.58 K | – | 153.57
113.82 K | 150.57 | –
114.38 K | – | 154.32
114.63 K | 151.57 | –
115.18 K | – | 155.23
115.43 K | 152.57 | –
115.99 K | – | 156.23
116.23 K | 153.24 | –
116.79 K | – | 156.89
117.04 K | 154.32 | –
117.59 K | – | 157.81
117.84 K | 155.15 | –
118.4 K | – | 158.72
118.64 K | 155.98 | –
119.2 K | – | 159.8
119.45 K | 156.81 | –
120 K | 157.31 | 160.64
120.25 K | 157.89 | –
120.81 K | – | 161.47
121.06 K | 158.56 | –
121.61 K | – | 162.22
121.86 K | 159.64 | –
122.41 K | – | 163.13
122.66 K | 160.3 | –
123.21 K | – | 164.21
123.47 K | 161.22 | –
124.02 K | – | 164.88
124.27 K | 162.13 | –
124.82 K | – | 165.96
125.07 K | 162.96 | –
125.62 K | – | 166.54
125.87 K | 163.79 | –
126.42 K | – | 167.37
126.68 K | 164.71 | –
127.23 K | – | 168.2
127.48 K | 165.54 | –
128.03 K | – | 169.2
128.28 K | 166.54 | –
128.83 K | – | 170.03
129.09 K | 167.45 | –
129.63 K | – | 170.95
129.89 K | 168.2 | –
130 K | 168.2 | –
130.43 K | – | 171.94
130.69 K | 169.03 | –
131.24 K | – | 172.53
131.49 K | 170.03 | –
132.04 K | – | 173.27
132.3 K | 170.86 | –
132.84 K | – | 174.35
133.1 K | 171.69 | –
133.64 K | – | 175.19
133.9 K | 172.77 | –
134.44 K | – | 176.02
134.71 K | 173.61 | –
135.25 K | – | 176.93
135.51 K | 174.44 | –
136.05 K | – | 177.85
136.31 K | 175.1 | –
136.85 K | – | 178.76
137.11 K | 176.02 | –
137.65 K | – | 179.76
137.92 K | 176.85 | –
138.45 K | – | 180.67
138.72 K | 177.93 | –
139.25 K | – | 181.5
139.52 K | 178.68 | –
140 K | 179.01 | –
140.06 K | – | 182.42
140.32 K | 179.43 | –
140.86 K | – | 183.25
141.12 K | 180.26 | –
141.66 K | – | 184
141.93 K | 181.34 | –
142.46 K | – | 184.83
142.72 K | 181.92 | –
143.25 K | – | 185.83
143.53 K | 182.83 | –
144.06 K | – | 186.66
144.33 K | 183.83 | –
144.86 K | – | 187.57
145.13 K | 184.75 | –
145.66 K | – | 188.41
145.93 K | 185.66 | –
146.46 K | – | 189.32
146.73 K | 186.49 | –
147.26 K | – | 190.15
